Values of other authors, collected in patent US6461634B1, “Food-based delivery of HGH-stimulating and other nutritional supplements” (priority 1999, dated 2002).

Tested on: HGH
Conditions: 5 mg melatonin taken orally one hour prior to vigorous exercise, versus vigorous exercise alone; healthy adult male subjects

## COc1ccc2[nH]cc(CCNC(C)=O)c2c1 [melatonin]
  increase in HGH resulting from vigorous exercise: triple
